Entries after “also recorded” stand apart in the source; their conditions may differ. Each block holds one compound with its values, some of them ahead of it.
Legend:
[1] = Antioxidant capacity by trapping the superoxide anion (photochemiluminescence with luminol); format: biochemical; settings: sample needed for activity equivalent to 1 μg Trolox; for ACL μg of sample for 1 μg of Trolox: methylene furanone samples; for μg of sample for 1 μg of Trolox: reference products
Experimental: The antioxidant capacity of 10 molecules was measured by trapping the superoxide anion: 5d, 9a, 5b, 5a, 5e, 4d, 5f, 5g, 5h, 5j.
The method consists in generating free radicals by a photochemical signal. Oxidation intensity is 1000 times higher than that obtained in normal conditions.
Thus, the superoxide radical (O2—) is generated by a photochemical reaction: L+hv(UV)+O2→L*O2→L^++O2—
Detection is done by chemiluminescence. It enables the evaluation of water-soluble and fat-soluble antioxidant molecules or extracts.
Part of the superoxide anions are quenched by antioxidants. The remaining free radicals are quantified by chemiluminescence. L^++O2^−→N2+AP*^2−→AP^2−+hv (luminescence)
The results are expressed respectively in equivalent quantity of vitamin C or Trolox (6-hydroxy-2,5,7,8-tetramethylchroman-2-carboxylic acid). Sensitivity is on the order of a nanomole.
The analysis of the results depends on two criteria: shape of the curve and numerical value given by the software.

[2] = UV absorption characteristics (photoprotecting capacity); format: physicochemical; settings: for region of UV absorption / maximum absorption: UVA, UVB, long UVA (340-400 nm); for UVA/UVB ratio (R) / critical wavelength (λc): UV absorption spectrum
Excerpt: The methylene furanone derivatives of general formula (I) of the present invention were thus evaluated in order to determine their photoprotecting capacity by determination of their UV absorption characteristics: molar extinction coefficient ε, critical wavelength (λc) and UVA/UVB ratio.
By gathering all this information and by comparing the shape of the UV absorption spectra, these molecules can be classified in three categories: […]

Tyrosinase = Tyrosinase monophenol monooxygenase (MPMO) inhibition test; format: biochemical; parameters: concentration or dose not given beside the values; settings: for a 50 quantity; substrate L-tyrosine, compared to maximum activity without inhibitor
Experimental: Tyrosinase is a limiting enzyme in melanogenesis. It belongs to the family of oxidoreductases. […] It is synthesised in melanocytes. It is activated during its migration towards keratinocytes via melanosomes. It transforms tyrosine into DOPA and then dopaquinone, which eventually leads to polymerization and pigment production.
The monophenol monooxygenase function is measured in this test. Tyrosinase activity (MPMO in the strict sense) is measured.
The substrate: L-tyrosine is transformed into L-DOPA. The enzymatic reaction is stopped at this stage. The DOPA produced is determined by an external calibration (0.005 mM to 0.1 mM). The final result is a percentage of inhibition compared to maximum activity without inhibitor or extract.

[3] = Photostability under Suntest irradiation (10 MED); format: physicochemical; settings: irradiated with 10 MED, UV spectra before and after irradiation; for Photostability in solution: in solution in ethanol; for Photostability powder: powder form
Excerpt: For this study it was decided to irradiate samples, in powder form or in solution in ethanol, with 10 MED (minimal erythema dose: minimum amount of solar radiation causing the appearance of sunburn). The evaluation of degradation is estimated by the shape of the UV absorption spectra before and after irradiation.
Evaluation of Stability of Methylene Furanone Derivatives Irradiated in Suntest.

Compound: COc1cc(C(=C2C=CC(=O)O2)c2cc(OC)c(OC)c(OC)c2)cc(OC)c1OC [5h, 5-(bis(3,4,5-trimethoxyphenyl)methylene)furan-2-(5H)-one]
- ACL μg of sample for 1 μg of Trolox [1]: 30 µg

- region of UV absorption / maximum absorption [2]: absorb in long UVA wavelengths
Compound: O=C1C=C(Br)/C(=C/c2ccccc2)O1 [6a, (Z)-4-Bromo-5-(phenylmethylene)furan-2-(5H)-one]

- region of UV absorption / maximum absorption [2]: absorb in long UVA wavelengths
Compound: O=C1C=C(c2ccsc2)/C(=C/c2ccccc2)O1 [8a, (Z)-5-(Phenylmethylene)-4-(thiophene-3-yl)furan-2-(5H)-one]

Compound: Cc1c(C)c2c(c(C)c1O)CCC(C)(C(=O)O)O2 (stereo not drawn) [Trolox, 6-hydroxy-2,5,7,8-tetramethylchroman-2-carboxylic acid, reference compound]
- μg of sample for 1 μg of Trolox [1]: 1.067 µg

- region of UV absorption / maximum absorption [2]: absorb in long UVA wavelengths
Compound: O=C1C=CC(=C(c2ccc3ccccc3c2)c2ccc3ccccc3c2)O1 [5c, 5-(Dinaphthalene-2-ylmethylene)furan-2-(5H)-one]

- molar extinction coefficient ε ([2]; UV absorption): 22,000 l.mol^−1.cm^−1
- UVA/UVB ratio (R) [2]: 3.2
- region of UV absorption / maximum absorption [2]: maximum is in UVB
Compound: O=C1C=C(c2ccc3ccccc3c2)/C(=C/c2ccc3ccccc3c2)O1 [4c, (Z)-4-(2-naphthalene)-5-(2-naphthalenephenylmethylene)furan-2(5H)-one]

Compound: O=C1C=CC(=C(c2cc(O)c(O)c(O)c2)c2cc(O)c(O)c(O)c2)O1 [5i, 5-(bis(3,4,5-Trihydroxyphenyl)methylene)furan-2-(5H)-one]
- ACL μg of sample for 1 μg of Trolox [1]: 1.5 µg

- region of UV absorption / maximum absorption [2]: absorb in long UVA wavelengths
Compound: O=C1C=C(c2ccccc2)/C(=C/c2ccccc2)O1 [4a, (Z)-4-Phenyl-5-(phenylmethylene)furan-2(5H)-one]

- UVA/UVB ratio (R) [2]: 1.9
- region of UV absorption / maximum absorption [2]: maximum is in UVB
Compound: O=C1C=C(c2ccsc2)/C(=C/c2ccsc2)O1 [4b, (Z)-4-(3-Thiophene)-5-(3-thiophenylmethylene)furan-2(5H)one]

- region of UV absorption / maximum absorption [2]: absorb in long UVA wavelengths
Compound: O=C1C=C(c2ccccc2F)/C(=C/c2ccccc2F)O1 [4f, (Z)-4-(2-Fluorophenyl)-(Z)-5-(2-fluorophenylmethylene)furan-2(5H)-one]

Compound: O=C1O[C@H]([C@@H](O)CO)C(O)=C1O [Vitamin C, ascorbic acid, reference compound]
- μg of sample for 1 μg of Trolox [1]: 0.451 µg

Compound: COc1ccc(O)c(C(C)(C)C)c1 [Butylhydroxyanisole, reference compound]
- μg of sample for 1 μg of Trolox [1]: 2.650 µg

- critical wavelength (λc) [2]: 355 nm
Compound: O=C1C=C(Br)/C(=C/c2ccsc2)O1 [6b, (Z)-4-Bromo-5-(thiophene-3-ylmethylene)furan-2-(5H)-one]

Compound: CC(=O)Oc1c(C)c(C)c2c(c1C)CCC(C)(CCC[C@H](C)CCC[C@H](C)CCCC(C)C)O2 (stereo partly drawn) [α-tocopherol-acetate, reference compound]
- μg of sample for 1 μg of Trolox [1]: 140 µg

- inhibition of MPMO enzyme activity (Tyrosinase): 65.93%
Compound: O=C1C=CC(=C(c2ccc(O)c(O)c2)c2ccc(O)c(O)c2)O1 [5g, 5-(bis(3,4-dihydroxyphenyl)methylene)furan-2-(5H)-one]
- ACL μg of sample for 1 μg of Trolox [1]: 0.03 µg

- Photostability in solution [3]: moderately stable
- Photostability powder [3]: stable
Compound: COc1ccc(/C=C2\OC(=O)C=C2c2ccc(OC)c(OC)c2)cc1OC [4d]
- ACL μg of sample for 1 μg of Trolox [1]: 50.2 µg

Compound: COC1=C(OC)C(=O)C(CCCCCCCCCCO)=C(C)C1=O [Idebenone, reference compound]
- μg of sample for 1 μg of Trolox [1]: 10.10 µg

- critical wavelength (λc) [2]: 367 nm
- Photostability in solution [3]: stable
- Photostability powder [3]: stable
Compound: O=C1C=CC(=C(c2ccccc2)c2ccccc2)O1 [5a, 5-(Diphenylmethylene)furan-2(5H)-one]
- ACL μg of sample for 1 μg of Trolox [1]: 43.0 µg

Compound: O=C(O)CCCC[C@@H]1CCSS1 (racemic) [Lipoic acid, reference compound]
- μg of sample for 1 μg of Trolox [1]: NEGATIVE

- Photostability in solution [3]: stable
- Photostability powder [3]: stable
Compound: CC(C)(C)OC(=O)Nc1ccc(C(=C2C=CC(=O)O2)c2ccc(NC(=O)OC(C)(C)C)cc2)cc1 [5e]
- ACL μg of sample for 1 μg of Trolox [1]: 46.3 µg

- Photostability in solution [3]: stable
- Photostability powder [3]: stable
Compound: O=C1C=C/C(=C(\c2ccccc2)c2ccsc2)O1 [9a, (Z)-5-(phenylthiophene-3-ylmethylene)furan-2-(5H)-one]
- ACL μg of sample for 1 μg of Trolox [1]: 21.6 µg

- Photostability in solution [3]: stable
- Photostability powder [3]: stable
Compound: O=C1C=CC(=C(c2ccsc2)c2ccsc2)O1 [5b, 5-(Dithiophene-3-ylmethylene)furan-2-(5H)-one]
- ACL μg of sample for 1 μg of Trolox [1]: 28.0 µg

Compound: N[C@@H](CS)C(=O)O [Cysteine, reference compound]
- μg of sample for 1 μg of Trolox [1]: 698 µg

- region of UV absorption / maximum absorption [2]: absorb in long UVA wavelengths
Compound: O=C1C=C(c2ccccc2)/C(=C/c2ccsc2)O1 [8b, 4-Phenyl-(Z)-5-(thiophene-3-ylmethylene)furan-2-(5H)-one]

- Photostability in solution [3]: stable
Compound: COc1ccc(C(=C2C=CC(=O)O2)c2ccc(OC)c(OC)c2)cc1OC [5d, 5-(bis(3,4-Dimethoxyphenyl)methylene)furan-2-(5H)-one]
- Photostability powder [3]: completely unstable; also recorded: not stable
- ACL μg of sample for 1 μg of Trolox [1]: 12.7 µg

- Photostability in solution [3]: stable
- Photostability powder [3]: stable
Compound: O=C1C=CC(=C(c2ccccc2F)c2ccccc2F)O1 [5f, 5-bis((2-fluorophenyl)methylene)furan-2-(5H)-one]
- ACL μg of sample for 1 μg of Trolox [1]: 88.3 µg
